What was measured:
PPARγ = experiment: Western blot of PPARγ level in Dunning R3327 AT-1 rat prostate tumors after treatment; type: in vivo; settings: untreated control = 100 R.A.U.
Source text: (§1) Dunning R3327, AT-1, rat prostate cancer, is a completely hormone-refractory tumor cell line. […] It lacks measurable quantities of receptor for androgens and estrogens. The clinical behavior of this tumor is not influenced by presence or absence of sex steroids (Isaacs et al, Prostate 9:261-281 (1986)).
(§2) After an initial passage in young male rats, the tumor was implanted dorsally into young intact (not castrated) male Copenhagen-Fischer rats (Copenhagen, Denmark) of approximately 250 grams. Tumor transplants were allowed to grow until palpable and visible and reached a mean size of 10 mm in diameter prior to treatment. The vehicle for the drug was Polyethylene glycol 400 and ethanol 1:1. The drug was injected adjacent to the tumor. […]
(§3) Thawed tumors were homogenized in ice cold lysis-buffer (160 mM NaCl, 10 mM […], 2 mM […], 0.5% Triton X-100, 100 μg/ml phenylmetylsulfonyl fluoride, 1 μg/ml leupeptin and 2 μg/ml aprotinin), placed on ice for 15 minutes and following clarification centrifuged for 10 minutes at 13,000 g. Protein content of homogenates were determined by Lowry assay Q.
(§4) Protein in lysates ([…]) were separated by electrophoresis using 8% SDS-PAGE, the isolated proteins were transferred onto a nitrocellulose membrane (Amersham) in a trans-blot electrophoretic transfer cell (Bio-Rad Laboratories). […] Optical density was measured densitometrically. […]

COX-2 = experiment: Western blot of COX-2 level in Dunning R3327 AT-1 rat prostate tumors after treatment; type: in vivo; settings: untreated control = 100 R.A.U.
Source text: as §1, §2, §3, §4

NF-κB = test system: NF-κB
Source text: as §1, §2, §3, §4

[1] = AT-1 tumor samples, 96 hours after single 10 mg dose injected adjacent to tumor
[2] = AT-1 tumor samples at 19 days, βAED single 80 mg dose, or αAED 10 mg then βAED 80 mg after 96 hours

**Q.** Which “PPARγ level, mean value” (PPARγ; [1]) does the source give for `C[C@]12CC[C@H]3[C@@H](CC=C4C[C@@H](O)CC[C@@]43C)[C@@H]1CC[C@H]2O` [αAED, Δ5-Androstene-3β, 17α-diol] here?
**A.** Its value is 190 R.A.U.

**Q.** What about the “COX-2 level, mean value” (COX-2; [1]) of the same compound?
**A.** Its value is 203 R.A.U.

**Q.** And the “effect on levels of NF-κB (in words)” value (NF-κB; finding stated in the description, no value given)?
**A.** The value was “increases”.

**Q.** Which “PPARγ level, mean value” (PPARγ; [2]) does the source give for `C[C@]12CC[C@H]3[C@@H](CC=C4C[C@@H](O)CC[C@@]43C)[C@@H]1CC[C@@H]2O` [βAED, Δ5-Androstene-3β, 17β-diol] here?
**A.** Its value is 47 R.A.U.

**Q.** What about the “COX-2 level, mean value” (COX-2; [2]) of the same compound?
**A.** Its value is 135 R.A.U.

**Q.** What about the “NF-κB level, mean value” (NF-κB; AT-1 tumor samples at 19 days after single 80 mg dose, untreated control = 100 R.A.U.) of the same compound?
**A.** Its value is 68±13.6 R.A.U.

From patent US20030181434A1, “AlphaAED and betaAED regulation of nuclear transcription, gene regulation, and/or gene expression” (priority 2002, published 2003)
